#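 Following 48 hours of exposure in 96-well plates, responses at five concentrations were used to interpolate endpoints linearly. Here, GI50 denotes the concentration required for 50% inhibition of growth. TGI denotes the concentration required for complete inhibition of growth.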
# Experiments:
# Experiment in all cases: NCI-60 cell line screen, 48 h
# [1] = test system: BT-549 breast
# [2] = test system: SNB-19 CNS
# [3] = test system: CAKI-1 renal
# [4] = test system: OVCAR-8 ovarian
# [5] = test system: SK-MEL-2 melanoma
# [6] = test system: HS 578T breast
# [7] = test system: SNB-75 CNS
# [8] = test system: U251 CNS
# [9] = test system: IGROV1 ovarian
# [10] = test system: HOP-62 NSCLC
# [11] = test system: COLO 205 colon
# [12] = test system: MALME-3M melanoma
# [13] = test system: SW-620 colon
# [14] = test system: HCC-2998 colon
# [15] = test system: SF-539 CNS
# [16] = test system: UACC-257 melanoma
# [17] = test system: ACHN renal
# [18] = test system: DU-145 prostate
# [19] = test system: KM12 colon
# [20] = test system: TK-10 renal
# [21] = test system: EKVX NSCLC
# [22] = test system: NCI-H226 lung
# [23] = test system: T-47D breast
# [24] = test system: NCI-H522 lung
# [25] = test system: PC-3 prostate
# [26] = test system: SN12C renal
# [27] = test system: MCF7 breast
# [28] = test system: OVCAR-3 ovarian
# [29] = test system: UACC-62 melanoma
# [30] = test system: K-562 leukemia
# [31] = test system: UO-31 renal
# [32] = test system: OVCAR-4 ovarian
# [33] = test system: SF-268 CNS
# [34] = test system: A549 NSCLC
# [35] = test system: NCI-H460 lung
# [36] = test system: HCT-15 colon
# [37] = test system: OVCAR-5 ovarian
# [38] = test system: SK-MEL-5 melanoma
# [39] = test system: A498 renal
# [40] = test system: SK-MEL-28 melanoma
# [41] = test system: HT29 colon
# [42] = test system: RPMI-8226 leukemia
# [43] = test system: M14 melanoma
# [44] = test system: MOLT-4 leukemia
# [45] = test system: LOX IMVI melanoma
# [46] = test system: NCI-H23 lung
# [47] = test system: SF-295 CNS
# [48] = test system: HL-60(TB) leukemia
# [49] = test system: NCI/ADR-RES ovarian
# [50] = test system: 786-0 renal
# [51] = test system: SR leukemia
# [52] = test system: MDA-MB-231 breast
# [53] = test system: MDA-MB-435
# [54] = test system: CCRF-CEM leukemia
# [55] = test system: RXF 393 renal
# [56] = test system: HCT-116 colon
# [57] = test system: SK-OV-3 ovarian
# [58] = test system: HOP-92 NSCLC
structure (smiles),measurement,setting,value
CC1=C(C(=O)Nc2ccc3[nH]ncc3c2)C(c2ccc(F)cc2)NC(=O)N1 (stereo not given),GI50,[1],16.9 µM
same,TGI,[1],> 25 µM
same,GI50,[2],> 25 µM
same,TGI,[2],> 25 µM
same,GI50,[3],> 25000 nM
same,TGI,[3],> 25 µM
same,GI50,[4],> 25 µM
same,TGI,[4],> 25 µM
same,GI50,[5],> 25 µM
same,TGI,[5],> 25 µM
same,GI50,[6],7.41 µM
same,TGI,[6],> 25 µM
same,GI50,[7],6.51 µM
same,TGI,[7],> 25 µM
same,GI50,[8],> 25 µM
same,TGI,[8],> 25 µM
same,GI50,[9],> 25000 nM
same,TGI,[9],> 25 µM
same,GI50,[10],> 25 µM
same,TGI,[10],> 25 µM
same,GI50,[11],> 25 µM
same,TGI,[11],> 25 µM
same,GI50,[12],> 25000 nM
same,TGI,[12],> 25 µM
same,GI50,[13],> 25000 nM
same,TGI,[13],> 25 µM
same,GI50,[14],> 25 µM
same,TGI,[14],> 25 µM
same,GI50,[15],> 25000 nM
same,TGI,[15],> 25 µM
same,GI50,[16],> 25 µM
same,TGI,[16],> 25 µM
same,GI50,[17],> 25 µM
same,TGI,[17],> 25 µM
same,GI50,[18],> 25 µM
same,TGI,[18],> 25 µM
same,GI50,[19],> 25 µM
same,TGI,[19],> 25 µM
same,GI50,[20],> 25 µM
same,TGI,[20],> 25 µM
same,GI50,[21],> 25000 nM
same,TGI,[21],> 25 µM
same,GI50,[22],6.46 µM
same,TGI,[22],> 25 µM
same,GI50,[23],> 25000 nM
same,TGI,[23],> 25 µM
same,GI50,[24],> 18200 nM
same,TGI,[24],> 25000 nM
same,GI50,[25],> 25 µM
same,TGI,[25],> 25 µM
same,GI50,[26],> 25000 nM
same,TGI,[26],> 25 µM
same,GI50,[27],> 25 µM
same,TGI,[27],> 25 µM
same,GI50,[28],> 25000 nM
same,TGI,[28],> 25 µM
same,GI50,[29],> 25000 nM
same,TGI,[29],> 25 µM
same,GI50,[30],> 25000 nM
same,TGI,[30],> 25 µM
same,GI50,[31],> 17500 nM
same,TGI,[31],> 25 µM
same,GI50,[32],> 25 µM
same,TGI,[32],> 25 µM
same,GI50,[33],23.4 µM
same,TGI,[33],> 25 µM
same,GI50,[34],> 25 µM
same,TGI,[34],> 25 µM
same,GI50,[35],> 25 µM
same,TGI,[35],> 25 µM
same,GI50,[36],> 25000 nM
same,TGI,[36],> 25 µM
same,GI50,[37],> 25 µM
same,TGI,[37],> 25 µM
same,GI50,[38],> 25 µM
same,TGI,[38],> 25 µM
same,GI50,[39],> 14.6 µM
same,TGI,[39],> 25 µM
same,GI50,[40],> 25 µM
same,TGI,[40],> 25 µM
same,GI50,[41],> 25 µM
same,TGI,[41],> 25 µM
same,GI50,[42],> 25000 nM
same,TGI,[42],> 25 µM
same,GI50,[43],> 25000 nM
same,TGI,[43],> 25 µM
same,GI50,[44],> 25000 nM
same,TGI,[44],> 25 µM
same,GI50,[45],> 25 µM
same,TGI,[45],> 25 µM
same,GI50,[46],> 25 µM
same,TGI,[46],> 25 µM
same,GI50,[47],> 25 µM
same,TGI,[47],> 25 µM
same,GI50,[48],> 25000 nM
same,TGI,[48],> 25 µM
same,GI50,[49],> 25 µM
same,TGI,[49],> 25 µM
same,GI50,[50],> 25000 nM
same,TGI,[50],> 25 µM
same,GI50,[51],19.2 µM
same,TGI,[51],> 25 µM
same,GI50,[52],> 25000 nM
same,TGI,[52],> 25 µM
same,GI50,[53],> 25000 nM
same,TGI,[53],> 25 µM
same,GI50,[54],> 25000 nM
same,TGI,[54],> 25 µM
same,GI50,[55],> 14600 nM
same,TGI,[55],> 25 µM
same,GI50,[56],> 25 µM
same,TGI,[56],> 25 µM
same,GI50,[57],> 25 µM
same,TGI,[57],> 25 µM
same,GI50,[58],425 nM
same,TGI,[58],> 25 µM
CCCCCCOc1ccc(/C=N/NC(N)=S)cc1,GI50,[1],2.79 µM
same,TGI,[1],9.15 µM
same,GI50,[2],12.3 µM
same,TGI,[2],> 100 µM
same,GI50,[3],1570 nM
same,TGI,[3],5.71 µM
same,GI50,[4],7.69 µM
same,TGI,[4],> 100 µM
same,GI50,[5],6.95 µM
same,TGI,[5],> 49.9 µM
same,GI50,[6],3.16 µM
same,TGI,[6],15 µM
same,GI50,[7],4.74 µM
same,TGI,[7],25.6 µM
same,GI50,[8],7.96 µM
same,TGI,[8],> 100 µM
same,GI50,[9],922 nM
same,TGI,[9],5.36 µM
same,GI50,[10],60.1 µM
same,TGI,[10],> 100 µM
same,GI50,[11],7.21 µM
same,TGI,[11],48.5 µM
same,GI50,[12],2740 nM
same,TGI,[12],7.82 µM
same,GI50,[13],1990 nM
same,TGI,[13],20.5 µM
same,GI50,[14],6.45 µM
same,TGI,[14],> 100 µM
same,GI50,[15],2380 nM
same,TGI,[15],6.06 µM
same,GI50,[16],3.5 µM
same,TGI,[16],27.8 µM
same,GI50,[17],5.89 µM
same,TGI,[17],> 100 µM
same,GI50,[18],7.26 µM
same,TGI,[18],> 100 µM
same,GI50,[19],3.09 µM
same,TGI,[19],13.6 µM
same,GI50,[20],5.54 µM
same,TGI,[20],30.1 µM
same,GI50,[21],2830 nM
same,TGI,[21],> 53.1 µM
same,GI50,[22],3.65 µM
same,TGI,[22],16.5 µM
same,GI50,[23],2390 nM
same,TGI,[23],18.2 µM
same,GI50,[24],421 nM
same,TGI,[24],1760 nM
same,GI50,[25],4.07 µM
same,TGI,[25],> 100 µM
same,GI50,[26],2160 nM
same,TGI,[26],9.9 µM
same,GI50,[27],6.74 µM
same,TGI,[27],34.3 µM
same,GI50,[28],1970 nM
same,TGI,[28],6.6 µM
same,GI50,[29],2580 nM
same,TGI,[29],10.3 µM
same,GI50,[30],1720 nM
same,TGI,[30],> 26.8 µM
same,GI50,[31],822 nM
same,TGI,[31],3.66 µM
same,GI50,[32],3.12 µM
same,TGI,[32],35 µM
same,GI50,[33],3.31 µM
same,TGI,[33],41.8 µM
same,GI50,[34],31.8 µM
same,TGI,[34],> 100 µM
same,GI50,[35],10.2 µM
same,TGI,[35],> 100 µM
same,GI50,[36],2690 nM
same,TGI,[36],> 100 µM
same,GI50,[37],12.8 µM
same,TGI,[37],> 100 µM
same,GI50,[38],7.52 µM
same,TGI,[38],20.8 µM
same,GI50,[39],16.8 µM
same,TGI,[39],32.3 µM
same,GI50,[40],10.9 µM
same,TGI,[40],38.4 µM
same,GI50,[41],3.21 µM
same,TGI,[41],> 100 µM
same,GI50,[42],1360 nM
same,TGI,[42],4.41 µM
same,GI50,[43],2540 nM
same,TGI,[43],12.1 µM
same,GI50,[44],432 nM
same,TGI,[44],5.26 µM
same,GI50,[45],3.78 µM
same,TGI,[45],21.1 µM
same,GI50,[46],4.3 µM
same,TGI,[46],> 100 µM
same,GI50,[48],1150 nM
same,TGI,[48],17.7 µM
same,GI50,[49],3.4 µM
same,TGI,[49],18.3 µM
same,GI50,[50],1740 nM
same,TGI,[50],6.05 µM
same,GI50,[51],4.22 µM
same,TGI,[51],> 100 µM
same,GI50,[52],1670 nM
same,TGI,[52],17.1 µM
same,GI50,[53],1840 nM
same,TGI,[53],7.56 µM
same,GI50,[54],605 nM
same,TGI,[54],7.69 µM
same,GI50,[55],1440 nM
same,TGI,[55],3.61 µM
same,GI50,[56],3.31 µM
same,TGI,[56],16.1 µM
same,GI50,[57],27.2 µM
same,TGI,[57],> 100 µM
same,GI50,[58],2390 nM
same,TGI,[58],27.4 µM

# Reference: PubChem BioAssay (NCI)
